The source of these data is ChEMBL document CHEMBL4715873, “A novel synthetic acanthoic acid analogues and their cytotoxic activity in cholangiocarcinoma cells” (Bioorg Med Chem, 2021).

One may read the IC50 as the concentration that gives 50% inhibition.

SMILES strings stand for the structures.

A short description of assay [1]: Cytotoxicity against human KKU-214 cells assessed as growth inhibition incubated for 48 hrs by MTT assay. The format is functional, cell-based, KKUM214. As to conditions: KKU-M214, 48 h. Background: Tetrazolium dyes change colour on reduction, which living cells bring about.
The nature of assay [2]: Cytotoxicity against human KKU-213 cells assessed as growth inhibition incubated for 48 hrs by MTT assay. As to conditions: KKU-M213, 48 h. It counts as functional, cell-based, KKUM213.
A short description of assay [3]: Cytotoxicity against human KKU-100 cells assessed as growth inhibition incubated for 48 hrs by MTT assay. It counts as functional, cell-based. As to conditions: KKU100, 48 h.
Assay [4] in a line: Cytotoxicity against human KKU-055 cells assessed as growth inhibition incubated for 48 hrs by MTT assay. It counts as functional, cell-based, KKUM055. As to conditions: KKU-M055, 48 h.
Assay [5] is described as follows: Cytotoxicity against human PBMC assessed as growth inhibition incubated for 48 hrs by MTT assay.
A short description of assay [6]: Potency index, ratio of acid IC50 to compound IC50 for cytotoxicity against human KKU-213 cells assessed as growth inhibition incubated for 48 hrs by MTT assay. It counts as functional, KKUM213.

As to `C=C[C@@]1(C)CC=C2[C@@H](CC[C@@H]3[C@](C)(C(=O)OCc4cn(CCCCCCCC)nn4)CCC[C@@]23C)C1`, the half-maximal inhibitory concentration (IC50) in assay [1] was 38 µM; in assay [2], 37 µM; in assay [3], more than 50 µM; in assay [4], 48 µM.

As to `C=C[C@@]1(C)CC=C2[C@@H](CC[C@@H]3[C@](C)(C(=O)OCc4cn(Cc5ccc(C)cc5)nn4)CCC[C@@]23C)C1`, the concentration for half-maximal inhibition (IC50) in assay [1] was 39 µM; in assay [2] it was 47 µM; in assay [3] it was more than 50 µM; in assay [4], more than 50 µM.

Consider `C=C[C@@]1(C)CC=C2[C@@H](CC[C@@H]3[C@](C)(C(=O)OCc4cn(Cc5ccc(OC)cc5)nn4)CCC[C@@]23C)C1`, for which the IC50 in assay [1], in assay [2], in assay [3] and in assay [4] was more than 50 µM throughout.

Turning to `C=C[C@@]1(C)CC=C2[C@@H](CC[C@@H]3[C@](C)(C(=O)OCc4ccc([N+](=O)[O-])cc4)CCC[C@@]23C)C1`, the IC50 in assay [1], in assay [2], in assay [3] and in assay [4] was more than 50 µM in each case.

Take `C=C[C@@]1(C)CC=C2[C@@H](CC[C@@H]3[C@](C)(C(=O)OCc4cn(Cc5ccc([N+](=O)[O-])cc5)nn4)CCC[C@@]23C)C1`: the half-inhibitory concentration (IC50) was 21 µM in assay [1]; 18 µM in assay [2]; more than 200 µM in assay [5]; more than 50 µM in assay [3]; 33 µM in assay [4]. The “Ratio IC50” value in assay [6] came to 8.

Turning to `O=C(NC1=CC(=O)[C@H]2O[C@H]2[C@H]1O)c1ccccc1O` [DEHYDROXYMETHYLEPOXYQUINOMICIN], the IC50 in assay [1] and in assay [2] was 19 µM each time.

Take `C#CCOC(=O)[C@]1(C)CCC[C@@]2(C)C3=CC[C@](C)(C=C)C[C@@H]3CC[C@H]12`: the IC50 was 34 µM in assay [1]; 31 µM in assay [2]; 71 µM in assay [5]; more than 50 µM in assay [3]; 37 µM in assay [4].

In the case of `C=C[C@@]1(C)CC=C2[C@@H](CC[C@@H]3[C@](C)(C(=O)OCc4ccccc4)CCC[C@@]23C)C1`, the 50% inhibitory concentration (IC50) in assay [1], in assay [2], in assay [3] and in assay [4] was more than 50 µM throughout.

As for `C=C[C@@]1(C)CC=C2[C@@H](CC[C@@H]3[C@](C)(C(=O)OCCCC)CCC[C@@]23C)C1`, the 50% inhibitory concentration (IC50) was more than 50 µM in assay [1], 37 µM in assay [2], more than 50 µM in assay [3] and 49 µM in assay [4].

With `C=C[C@@]1(C)CC=C2[C@@H](CC[C@@H]3[C@](C)(C(=O)O)CCC[C@@]23C)C1`, the IC50 in assay [1] was 168 µM; in assay [2] it was 149 µM; in assay [3], 174 µM; in assay [4], 120 µM.

In the case of `C=C[C@@]1(C)CC=C2[C@@H](CC[C@@H]3[C@](C)(C(=O)OCc4cn(Cc5ccccc5)nn4)CCC[C@@]23C)C1`, the IC50 in assay [1] was 41 µM; in assay [2] it was 40 µM; in assay [3], more than 50 µM; in assay [4] it was 47 µM.

`C=C[C@@]1(C)CC=C2[C@@H](CC[C@@H]3[C@](C)(C(=O)OCc4cn(Cc5ccc(Br)cc5)nn4)CCC[C@@]23C)C1`: the IC50 in assay [1], in assay [2], in assay [3] and in assay [4] was more than 50 µM throughout.

With `C=C[C@@]1(C)CC=C2[C@@H](CC[C@@H]3[C@](C)(C(=O)OCc4cccc(F)c4)CCC[C@@]23C)C1`, the half-maximal inhibitory concentration (IC50) was more than 50 µM in assay [1]; 28 µM in assay [2]; 163 µM in assay [5]; more than 50 µM in assay [3]; 41 µM in assay [4].

For `C=CCOC(=O)[C@]1(C)CCC[C@@]2(C)C3=CC[C@](C)(C=C)C[C@@H]3CC[C@H]12`, the concentration for half-maximal inhibition (IC50) in assay [1], in assay [2], in assay [3] and in assay [4] was more than 50 µM throughout.

On to `C=C[C@@]1(C)CC=C2[C@@H](CC[C@@H]3[C@](C)(C(=O)OCc4ccc(Cl)cc4)CCC[C@@]23C)C1`, for which the half-inhibitory concentration (IC50) in assay [1], in assay [2], in assay [3] and in assay [4] was more than 50 µM in each case.

With `C=C[C@@]1(C)CC=C2[C@@H](CC[C@@H]3[C@](C)(C(=O)OCc4cn(Cc5cccc(F)c5)nn4)CCC[C@@]23C)C1`, the IC50 in assay [1], in assay [2], in assay [3] and in assay [4] was more than 50 µM each time.

`C=C[C@@]1(C)CC=C2[C@@H](CC[C@@H]3[C@](C)(C(=O)OCc4ccccc4F)CCC[C@@]23C)C1`: the IC50 in assay [1] was more than 50 µM; in assay [2], 35 µM; in assay [3], more than 50 µM; in assay [4] it was 47 µM.

With `C=C[C@@]1(C)CC=C2[C@@H](CC[C@@H]3[C@](C)(C(=O)OCc4cn(Cc5ccc(F)cc5)nn4)CCC[C@@]23C)C1`, the half-maximal inhibitory concentration (IC50) in assay [1], in assay [2], in assay [3] and in assay [4] was more than 50 µM throughout.

Regarding `C=C[C@@]1(C)CC=C2[C@@H](CC[C@@H]3[C@](C)(C(=O)OCc4ccc(OC)cc4)CCC[C@@]23C)C1`, the half-maximal inhibitory concentration (IC50) in assay [1], in assay [2], in assay [3] and in assay [4] was more than 50 µM in each case.

Consider `C=C[C@@]1(C)CC=C2[C@@H](CC[C@@H]3[C@](C)(C(=O)OCc4cn(Cc5ccc(Cl)cc5)nn4)CCC[C@@]23C)C1`, for which the IC50 in assay [1] is 39 µM; in assay [2], more than 50 µM; in assay [3] it was more than 50 µM; in assay [4] it was more than 50 µM.

As for `C=C[C@@]1(C)CC=C2[C@@H](CC[C@@H]3[C@](C)(C(=O)OCc4ccc(Br)cc4)CCC[C@@]23C)C1`, the half-inhibitory concentration (IC50) in assay [1] is 41 µM; in assay [2] it was 41 µM; in assay [3] it was more than 50 µM; in assay [4], more than 50 µM.

As to `C=C[C@@]1(C)CC=C2[C@@H](CC[C@@H]3[C@](C)(C(=O)OCc4ccc(F)cc4)CCC[C@@]23C)C1`, the IC50 was more than 50 µM in assay [1], 38 µM in assay [2], more than 50 µM in assay [3] and more than 50 µM in assay [4].

Regarding `C=C[C@@]1(C)CC=C2[C@@H](CC[C@@H]3[C@](C)(C(=O)OCc4ccc(C)cc4)CCC[C@@]23C)C1`, the IC50 in assay [1], in assay [2], in assay [3] and in assay [4] was more than 50 µM each time.

As for `C=C[C@@]1(C)CC=C2[C@@H](CC[C@@H]3[C@](C)(C(=O)OCc4cn(Cc5ccccc5F)nn4)CCC[C@@]23C)C1`, the IC50 in assay [1], in assay [2], in assay [3] and in assay [4] was more than 50 µM in each case.

With `C=C[C@@]1(C)CC=C2[C@@H](CC[C@@H]3[C@](C)(C(=O)OCCCCCCCC)CCC[C@@]23C)C1`, the IC50 in assay [1], in assay [2], in assay [3] and in assay [4] was more than 50 µM each time.
